The target of the test is T1, human PAH with the R408W mutation (A375 R408W cells) (Homo sapiens, UniProt P00439, R408W).
T1 construct: expressed in transfected cells
T1 sequence (P00439 1-452 R408W): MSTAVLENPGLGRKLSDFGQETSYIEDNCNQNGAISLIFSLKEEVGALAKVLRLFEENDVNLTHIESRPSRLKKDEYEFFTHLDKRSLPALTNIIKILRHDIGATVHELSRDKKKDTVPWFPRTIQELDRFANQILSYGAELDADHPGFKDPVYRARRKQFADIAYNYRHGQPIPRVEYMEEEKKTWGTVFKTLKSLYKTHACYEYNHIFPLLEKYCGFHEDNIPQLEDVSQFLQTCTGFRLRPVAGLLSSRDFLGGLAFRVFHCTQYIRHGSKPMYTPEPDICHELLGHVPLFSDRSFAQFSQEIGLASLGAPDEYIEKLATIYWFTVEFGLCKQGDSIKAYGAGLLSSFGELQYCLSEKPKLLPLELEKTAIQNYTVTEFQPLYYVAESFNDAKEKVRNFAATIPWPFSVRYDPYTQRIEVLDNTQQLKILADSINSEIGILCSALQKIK
The test is described as follows: Cell Based Phenylalanine Flux Assay. To be noted: 24 hrs with compound, then 20 μM sepiapterin and 800 μM 13C9,15N-Phenylalanine for 4 hours, 13C-Tyrosine by LC-MS, average where tested multiple times. The gist of the method: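 Stable R408W PAH A375 cells: 24 h compound pretreatment in duplicate, then 4 h with 800 μM isotope-labelled Phe and 20 μM sepiapterin. Labelled Tyr output by LC-MS; AC50 averaged where repeated.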

The mark [1] stands for this setting: A375 cells expressing R408W PAH.

Some results are limits rather than exact numbers.

For `CN(C)Cc1cn2ncc(C(=O)N3CCc4[nH]cnc4[C@@H]3c3nc4cc(F)ccc4o3)c2cc1Cl` [Example 204, (R)-(5-chloro-6-((dimethylamino)methyl)pyrazolo[1,5-a]pyridin-3-yl)(4-(5-fluorobenzo[d]oxazol-2-yl)-6,7-dihydro-1H-imidazo[4,5-c]pyridin-5(4H)-yl)methanonee], the AC50 (A375 R408W cells) was in the range of 1 to 5 µM.
On the same count and under the same terms, then `Cc1ccc2oc([C@H]3c4nc[nH]c4CCN3C(=O)c3oc(-c4cn(C)cn4)nc3C(F)F)nc2c1` [Example 783, (R)-(4-(difluoromethyl)-2-(1-methyl-1H-imidazol-4-yl)oxazol-5-yl)(4-(5-methylbenzo[d]oxazol-2-yl)-6,7-dihydro-1H-imidazo[4,5-c]pyridin-5(4H)-yl)methanone], with not above 0.5 µM.
Take `Cc1ccc2nc([C@@H]3c4nc[nH]c4CCN3C(=O)c3nnc(-c4cnn(C)c4)o3)oc2c1` [Example 103, (S)-(5-(1-methyl-1H-pyrazol-4-yl)-1,3,4-oxadiazol-2-yl)(4-(6-methylbenzo[d]oxazol-2-yl)-6,7-dihydro-1H-imidazo[4,5-c]pyridin-5(4H)-yl)methanone]: the AC50 (A375 R408W cells) lay within 1 to 5 µM.
`CN(C)Cc1ncc(C(=O)N2CCc3[nH]cnc3C2c2nc3cc(F)ccc3o2)o1` (stereo not drawn): under setting [1], the AC50 is not below 5 µM.
As for `Cn1nc(C(F)F)nc1C(=O)N1CCc2[nH]cnc2C1c1nc2c(F)c(F)ccc2o1` (stereo not drawn), the AC50 under setting [1] is 1 to 5 µM.
`Cc1cccc2oc([C@H]3c4nc[nH]c4CCN3C(=O)c3cnco3)nc12` [Example 510, (R)-(4-(4-methylbenzo[d]oxazol-2-yl)-6,7-dihydro-1H-imidazo[4,5-c]pyridin-5(4H)-yl)(oxazol-5-yl)methanone]: the AC50 (A375 R408W cells) was 1 to 5 µM.
`O=C(CCc1ncco1)N1CCc2[nH]cnc2C1c1nc2ccc(F)cc2o1` (stereo not drawn): the AC50 under setting [1] lay in the range of 1 to 5 µM.
Regarding `O=C(c1nnc(-c2ccc(F)cn2)o1)N1CCc2[nH]cnc2[C@@H]1c1nc2cc(F)ccc2o1` [Example 34, (R)-(4-(5-fluorobenzo[d]oxazol-2-yl)-6,7-dihydro-1H-imidazo[4,5-c]pyridin-5(4H)-yl)(5-(5-fluoropyridin-2-yl)-1,3,4-oxadiazol-2-yl)methanone], the AC50 (A375 R408W cells) lay within 1 to 5 µM.
Regarding `O=C(c1nnc(-c2c[nH]nc2C(F)(F)F)o1)N1CCc2[nH]cnc2C1c1nc2cc(F)ccc2o1` (stereo not drawn), under setting [1], the AC50 lay in the range of 1 to 5 µM.
Regarding `CC(C)(O)c1ncc(C(=O)N2CCc3[nH]cnc3[C@@H]2c2nc3cccc(F)c3o2)o1` [Example 714, (R)-(4-(7-fluorobenzo[d]oxazol-2-yl)-6,7-dihydro-1H-imidazo[4,5-c]pyridin-5(4H)-yl)(2-(2-hydroxypropan-2-yl)oxazol-5-yl)methanone], for the setting “A375 R408W cells”, the AC50 is 1 to 5 µM.
Same read-out and setting: then `CC(C)(O)c1nc(Cl)c(C(=O)N2CCc3[nH]cnc3[C@@H]2c2nc3ccc(F)cc3o2)o1` [Example 270, (R)-(4-chloro-2-(2-hydroxypropan-2-yl)oxazol-5-yl)(4-(6-fluorobenzo[d]oxazol-2-yl)-6,7-dihydro-1H-imidazo[4,5-c]pyridin-5(4H)-yl)methanone], with not below 5 µM.
With `CC1CN(C(=O)c2oc(C(C)(C)O)nc2C(F)F)C(c2nc3cc(F)ccc3o2)c2nc[nH]c21` (stereo not drawn), the AC50 under setting [1] is not below 5 µM.
Take `O=C(c1cnn2cc(N3CCC(O)CC3)ccc12)N1CCc2[nH]cnc2[C@H]1c1nc2cc(F)cc(F)c2o1` [Example 699, (S)-(4-(5,7-difluorobenzo[d]oxazol-2-yl)-6,7-dihydro-1H-imidazo[4,5-c]pyridin-5(4H)-yl)(6-(4-hydroxypiperidin-1-yl)pyrazolo[1,5-a]pyridin-3-yl)methanone]: the AC50 (A375 R408W cells) fell in the range of 1 to 5 µM.
On the same count and under the same terms, then `C[C@@H](O)c1nc(C(F)F)c(C(=O)N2CCc3[nH]cnc3[C@H]2c2nc3cccc(F)c3o2)o1` [Example 245, (4-(difluoromethyl)-2-((R)-1-hydroxyethyl)oxazol-5-yl)((S)-4-(7-fluorobenzo[d]oxazol-2-yl)-6,7-dihydro-1H-imidazo[4,5-c]pyridin-5(4H)-yl)methanone], with not above 0.5 µM.
In the case of `Cc1ccc2nc(C3c4nc[nH]c4CCN3C(=O)c3cncs3)oc2c1` (stereo not drawn), the AC50 under setting [1] was 1 to 5 µM.
`Cc1ccc2oc([C@@H]3c4nc[nH]c4CCN3C(=O)c3nnc(-c4cc[nH]n4)o3)nc2c1` [Example 355, (S)-(5-(1H-pyrazol-3-yl)-1,3,4-oxadiazol-2-yl)(4-(5-methylbenzo[d]oxazol-2-yl)-6,7-dihydro-1H-imidazo[4,5-c]pyridin-5(4H)-yl)methanone]: the AC50 (A375 R408W cells) was in the range of 0.5 to 1 µM.
On to `O=C(c1cnn2cc(N3CCC(O)CC3)ccc12)N1CCc2[nH]cnc2C1c1nc2cc(F)ccc2o1` (stereo not drawn), for which the AC50 under setting [1] is 1 to 5 µM.
On to `Cn1cc(-c2nnc(C(=O)N3CCc4[nH]cnc4[C@H]3c3nc4cc(F)ccc4o3)o2)cn1` [Example 67, (S)-(4-(5-fluorobenzo[d]oxazol-2-yl)-6,7-dihydro-1H-imidazo[4,5-c]pyridin-5(4H)-yl)(5-(1-methyl-1H-pyrazol-4-yl)-1,3,4-oxadiazol-2-yl)methanone], for which the AC50 (A375 R408W cells) is 1 to 5 µM.
In the case of `CN(C)c1ccc2c(C(=O)N3CCc4[nH]cnc4[C@H]3c3nc4cc(F)ccc4o3)cnn2c1` [Example 91, (S)-(6-(dimethylamino)pyrazolo[1,5-a]pyridin-3-yl)(4-(5-fluorobenzo[d]oxazol-2-yl)-6,7-dihydro-1H-imidazo[4,5-c]pyridin-5(4H)-yl)methanone], the AC50 (A375 R408W cells) lay within 0.5 to 1 µM.
The same measure, in the same setting: then `COc1cccc2nc([C@@H]3c4nc[nH]c4CCN3C(=O)c3ocnc3C(F)F)oc12` [Example 457, (S)-(4-(difluoromethyl)oxazol-5-yl)(4-(7-methoxybenzo[d]oxazol-2-yl)-6,7-dihydro-1H-imidazo[4,5-c]pyridin-5(4H)-yl)methanone], with not above 0.5 µM; and `CC(C)(O)c1nc(C(F)F)c(C(=O)N2CCc3[nH]cnc3[C@H]2c2nc3ccccc3o2)o1` [Example 470, (S)-(4-(benzo[d]oxazol-2-yl)-6,7-dihydro-1H-imidazo[4,5-c]pyridin-5(4H)-yl)(4-(difluoromethyl)-2-(2-hydroxypropan-2-yl)oxazol-5-yl)methanone], with not above 0.5 µM; and `Cn1cc(-c2ccc3c(C(=O)N4CCc5[nH]cnc5[C@@H]4c4nc5cccc(F)c5o4)cnn3c2)cn1` [Example 384, (R)-(4-(7-fluorobenzo[d]oxazol-2-yl)-6,7-dihydro-1H-imidazo[4,5-c]pyridin-5(4H)-yl)(6-(1-methyl-1H-pyrazol-4-yl)pyrazolo[1,5-a]pyridin-3-yl)methanone], with 1 to 5 µM.
For `Cc1ncoc1C(=O)N1CCc2[nH]cnc2C1c1nc2cc(F)ccc2o1` (stereo not drawn), the AC50 under setting [1] was 1 to 5 µM.
Regarding `C[C@H](O)c1nc(C(F)F)c(C(=O)N2CCc3[nH]cnc3[C@H]2c2nc3c(F)cccc3o2)o1` [Example 227, (4-(difluoromethyl)-2-((S)-1-hydroxyethyl)oxazol-5-yl)((S)-4-(4-fluorobenzo[d]oxazol-2-yl)-6,7-dihydro-1H-imidazo[4,5-c]pyridin-5(4H)-yl)methanone], for the setting “A375 R408W cells”, the AC50 is not above 0.5 µM.
As for `O=C(c1nnc(-c2cnn(CC(F)(F)F)c2)o1)N1CCc2[nH]cnc2C1c1nc2cc(F)ccc2o1` (stereo not drawn), the AC50 under setting [1] was 1 to 5 µM.
On to `COCc1nc(C(F)F)c(C(=O)N2CCc3[nH]cnc3[C@@H]2c2nc3cc(F)ccc3o2)o1` [Example 109, (R)-(4-(difluoromethyl)-2-(methoxymethyl)oxazol-5-yl)(4-(5-fluorobenzo[d]oxazol-2-yl)-6,7-dihydro-1H-imidazo[4,5-c]pyridin-5(4H)-yl)methanone], for which the AC50 (A375 R408W cells) is 1 to 5 µM.
Same read-out and setting: then `Cc1cccc2oc([C@H]3c4nc[nH]c4CCN3C(=O)c3oc(C(C)(C)O)nc3C(F)F)nc12` [Example 362, (R)-(4-(difluoromethyl)-2-(2-hydroxypropan-2-yl)oxazol-5-yl)(4-(4-methylbenzo[d]oxazol-2-yl)-6,7-dihydro-1H-imidazo[4,5-c]pyridin-5(4H)-yl)methanone], with 1 to 5 µM.
On the same count and under the same terms, then `O=C(CCc1cncs1)N1CCc2[nH]cnc2[C@H]1c1nc2cccc(F)c2o1` [Example 409, (S)-1-(4-(7-fluorobenzo[d]oxazol-2-yl)-6,7-dihydro-1H-imidazo[4,5-c]pyridin-5(4H)-yl)-3-(thiazol-5-yl)propan-1-one], with 0.5 to 1 µM.
Same read-out and setting: then `Cc1cccc2oc([C@H]3c4nc[nH]c4CCN3C(=O)c3nnc(-c4cnn(C)c4)o3)nc12` [Example 479, (R)-(5-(1-methyl-1H-pyrazol-4-yl)-1,3,4-oxadiazol-2-yl)(4-(4-methylbenzo[d]oxazol-2-yl)-6,7-dihydro-1H-imidazo[4,5-c]pyridin-5(4H)-yl)methanone], with 0.5 to 1 µM; and `COc1ccc(-c2nnc(C(=O)N3CCc4[nH]cnc4[C@@H]3c3nc4cc(C)ccc4o3)o2)nc1` [Example 678, (R)-(5-(5-methoxypyridin-2-yl)-1,3,4-oxadiazol-2-yl)(4-(5-methylbenzo[d]oxazol-2-yl)-6,7-dihydro-1H-imidazo[4,5-c]pyridin-5(4H)-yl)methanone], with 1 to 5 µM.

Usually AC50 stands for the midpoint of the concentration-response curve, whichever way the signal moves.

(Values after patent publication US20250171437A1 (Agios Pharmaceuticals,Inc., priority 2022, published 2025).)
